Patent US4022895A, “Substituted phenylglycylcephalosporins” (SmithKline Corporation, priority 1975, dated 1977)
≈ marks a conversion by molar mass, not a printed value. Like-named read-outs stand apart in the source and are kept apart here.

Tests used:
[1] = system: Entero. aerog. ATCC 13048; assay: In vitro antibacterial activity (MIC); type: cell-based; settings: Entero. aerog. ATCC 13048, in vitro; read-out: MIC
Method: (§1) The compounds of this invention have antibacterial activity against Gram-positive and Gram-negative organisms. Minimum inhibitory concentrations (MIC's) ranged from 0.4 to >200 μg/ml in in vitro testing.

[2] = system: S.aureus HH 127; assay: In vitro antibacterial activity (MIC); type: cell-based; settings: Staphylococcus aureus, HH127
Method: as §1

[3] = system: Sal. paratyphl ATCC 12176; assay: In vitro antibacterial activity (MIC); type: cell-based
Method: as §1

[4] = system: S.aureus Villaluz; assay: In vitro antibacterial activity (MIC); type: cell-based; settings: Staphylococcus aureus
Method: as §1

[5] = system: S.aureus SK 23390; assay: In vitro antibacterial activity (MIC); type: cell-based; settings: Staphylococcus aureus, SK23390
Method: as §1

[6] = system: Kleb. pneumo. SK 4200; assay: In vitro antibacterial activity (MIC); type: cell-based
Method: as §1

[7] = system: E.coli SK 12140; assay: In vitro antibacterial activity (MIC); type: cell-based; settings: Escherichia coli, SK12140
Method: as §1

[8] = system: Shig. paradys HH 112; assay: In vitro antibacterial activity (MIC); type: cell-based
Method: as §1

[9] = system: Strep. faecalis HH 34358; assay: In vitro antibacterial activity (MIC); type: cell-based; settings: Enterococcus faecalis, HH34358; Strep. faecalis HH 34358, in vitro
Method: as §1

[10] = system: Kleb. pneumo. SK 1200; assay: In vitro antibacterial activity (MIC); type: cell-based
Method: as §1

[11] = system: E. coli HH 33779; assay: In vitro antibacterial activity (MIC); type: cell-based; settings: Escherichia coli, HH33779; E. coli HH 33779, in vitro; read-out: MIC
Method: as §1

[12] = system: Klebs.pneumo. 4200; assay: In vivo activity (ED50) against Klebs.pneumo. 4200
[13] = system: E.coli 12140; assay: In vivo activity (ED50) against E.coli 12140
[14] = system: Proteus morgani 179; assay: In vitro antibacterial activity (MIC); type: cell-based; settings: Proteus morgani 179, in vitro; read-out: MIC
Method: as §1

[15] = S.aureus HH 127, in vitro, read-out: MIC
[16] = S.aureus SK 23390, in vitro, read-out: MIC
[17] = Kleb. pneumo. SK 4200, in vitro, read-out: MIC
[18] = Shig. paradys HH 112, in vitro, read-out: MIC
[19] = po, Klebs.pneumo. 4200, p.o., read-out: ED50
[20] = Escherichia coli, 12140, sc, E.coli 12140, s.c.
[21] = E.coli SK 12140, in vitro, read-out: MIC
[22] = Kleb. pneumo. SK 1200, in vitro, read-out: MIC
[23] = sc, Klebs.pneumo. 4200, s.c., read-out: ED50
[24] = Escherichia coli, 12140, po, E.coli 12140, p.o.

Compound | MIC [1] [µg/mL] | MIC [2, 15] [µg/mL] | MIC [3] [µg/mL] | MIC [4] [µg/mL] | MIC [5, 16] [µg/mL] | MIC [6, 17] [µg/mL] | MIC [8, 18] [µg/mL] | MIC [9] [µg/mL] | MIC [11] [µg/mL] | ED50 [12, 19] [mg/kg] | ED50 [13, 20] [mg/kg] | MIC [7, 21] [µg/mL] | MIC [10, 22] [µg/mL] | ED50 [12, 23] [mg/kg] | ED50 [13, 24] [mg/kg] | MIC [14] [µg/mL] | further results
Cc1nnc(SCC2=C(C(=O)O)N3C(=O)C(NC(=O)C(N)c4ccc(OCC(=O)O)cc4)C3SC2)s1 (centres unmarked) [*59216] | 12.5 to 50 (≈ 22.7 to 90.6 µM) | 6.3 to 25 (≈ 11.4 to 45.3 µM) | 3.1 to 12.5 (≈ 5.62 to 22.7 µM) | 100 to 200 (≈ 181 to 363 µM) | 100 to 200 (≈ 181 to 363 µM) | 1.6 to 6.3 (≈ 2.9 to 11.4 µM) | 1.6 to 12.5 (≈ 2.9 to 22.7 µM) | 50 to 200 (≈ 90.6 to 363 µM) | 6.3 to 25 (≈ 11.4 to 45.3 µM) | 29 | 6.2 |  |  |  |  |  | MIC [7]: 3.1 to 12.5 µg/mL (≈ 5.62 to 22.7 µM); MIC [10]: 3.1 to 12.5 µg/mL (≈ 5.62 to 22.7 µM)
Cc1nnc(SCC2=C(C(=O)O)N3C(=O)C(NC(=O)C(N)c4ccc(OCC(N)=O)cc4)C3SC2)s1 (centres unmarked) [*71816] | 100 (≈ 182 µM) | 25 (≈ 45.4 µM) | 12.5 (≈ 22.7 µM) | 100 (≈ 182 µM) |  | 25 (≈ 45.4 µM) | 12.5 (≈ 22.7 µM) | 200 (≈ 363 µM) | 50 (≈ 90.8 µM) | 13.7 | 13.7 | 50 (≈ 90.8 µM) | 50 (≈ 90.8 µM) | 11.5 | 21.5 |  | MIC [5]: 12.5 µg/mL (≈ 22.7 µM)
N[C@@H](C(=O)NC1C(=O)N2C(C(=O)O)=C(CSc3c[nH]nn3)CSC12)c1ccc(SCC(=O)O)cc1 (stereo partly drawn) [Compound No. 04726, 7-[D-α-Amino-α-(4'-carboxymethylthiophenyl)-acetamido]-3-(1,2,3,-triazol-4-ylthiomethyl)-3-cephem-4-carboxylic acid] | 25 (≈ 46.6 µM) | 12.5 (≈ 23.3 µM) |  | 100 (≈ 186 µM) | 12.5 (≈ 23.3 µM) | 3.1 (≈ 5.78 µM) | 6.3 (≈ 11.7 µM) | 200 (≈ 373 µM) | 12.5 (≈ 23.3 µM) | 14.5 | 12.5 | 25 (≈ 46.6 µM) | 3.1 (≈ 5.78 µM) | 9.5 | 46 |  | 
COC(=O)COc1ccc([C@@H](N)C(=O)NC2C(=O)N3C(C(=O)O)=C(C)CSC23)cc1 (stereo partly drawn) [Compound No. 07826, 7-[D-α-Amino-α-(4'-carbomethoxymethoxyphenyl)acetamido]-3-desacetoxycephalosporanic acid] | > 200 | 6.3 (≈ 14.5 µM) | 50 (≈ 115 µM) | 200 (≈ 459 µM) | 6.3 (≈ 14.5 µM) | 100 (≈ 230 µM) | 50 (≈ 115 µM) | 100 (≈ 230 µM) | > 200 |  |  | 100 (≈ 230 µM) | 100 (≈ 230 µM) |  |  |  | 
COC(=O)COc1ccc([C@@H](N)C(=O)NC2C(=O)N3C(C(=O)O)=C(CSc4c[nH]nn4)CSC23)cc1 (stereo partly drawn) [Compound No. 19736, 7-[D-α-Amino-α-(4'-carbomethoxymethoxyphenyl)acetamido]-3-(1,2,3-triazol-4-ylthiomethyl)-3-cephem-4-carboxylic acid] | > 200 | 12.5 (≈ 23.4 µM) | 25 (≈ 46.8 µM) | 200 (≈ 374 µM) | 12.5 (≈ 23.4 µM) | 50 (≈ 93.5 µM) | 25 (≈ 46.8 µM) | 100 (≈ 187 µM) | 100 (≈ 187 µM) |  | 34 | 50 (≈ 93.5 µM) | 50 (≈ 93.5 µM) |  | 25 | > 200 | 
COC(=O)COc1ccc([C@@H](N)C(=O)NC2C(=O)N3C(C(=O)O)=C(CSc4nnnn4C)CSC23)cc1 (stereo partly drawn) [Compound No. 26436, 7-[D-α-Amino-α-(4'-carbomethoxymethoxyphenyl)acetamido]-3-(1-methyl-1,2,3,4-tetrazol-5-ylthiomethyl)-3-cephem-4-carboxylic acid] | 25 (≈ 45.5 µM) | 6.3 (≈ 11.5 µM) | 3.1 (≈ 5.64 µM) | 25 (≈ 45.5 µM) | 6.3 (≈ 11.5 µM) | 6.3 (≈ 11.5 µM) |  | 50 (≈ 91 µM) | 12.5 (≈ 22.7 µM) | 5.5 | 1.2 | 12.5 (≈ 22.7 µM) | 6.3 (≈ 11.5 µM) | 1.5 | 9.6 | 50 (≈ 91 µM) | MIC [8]: 6.5 µg/mL (≈ 11.8 µM)
Cn1nnnc1SCC1=C(C(=O)O)N2C(=O)C(NC(=O)[C@H](N)c3ccc(OCC(=O)O)cc3)C2SC1 (stereo partly drawn) [Compound No. 42526, 7-[D-α-Amino-α-(4'-carboxymethoxyphenyl)acetamido]-3-(1-methyl-1,2,3,4-tetrazol-5-ylthiomethyl)-3-cephem-4-carboxylic acid] | 12.5 (≈ 23.3 µM) | 25 (≈ 46.7 µM) | 6.3 (≈ 11.8 µM) | 200 (≈ 373 µM) | 25 (≈ 46.7 µM) | 3.1 (≈ 5.79 µM) | 6.3 (≈ 11.8 µM) | > 200 | 12.5 (≈ 23.3 µM) | 33 | 9.5 | 6.3 (≈ 11.8 µM) | 3.1 (≈ 5.79 µM) | 5.4 | > 50 | 100 (≈ 187 µM) | 
CC1=C(C(=O)O)N2C(=O)C(NC(=O)[C@H](N)c3ccc(NCC(=O)O)cc3)C2SC1 (stereo partly drawn) [Compound No. 51436, 7-[D-α-Amino-α-(4'-carboxymethylaminophenyl)acetamido]-3-desacetoxycephalosphoranic acid] | 100 (≈ 238 µM) |  |  | 200 (≈ 476 µM) |  |  | 25 (≈ 59.5 µM) | 200 (≈ 476 µM) | 25 (≈ 59.5 µM) |  |  | 25 (≈ 59.5 µM) | 50 (≈ 119 µM) |  |  |  | MIC [2]: 12.5 µg/mL (≈ 29.7 µM); MIC [5]: 12.5 µg/mL (≈ 29.7 µM); MIC [6]: 12.5 µg/mL (≈ 29.7 µM)
CC(=O)OCC1=C(C(=O)O)N2C(=O)C(NC(=O)[C@H](N)c3ccc(OCC(=O)O)cc3)C2SC1 (stereo partly drawn) [Compound No. 60326, 7-[D-α-Amino-α-(4'-carboxymethoxyphenyl)acetamido]-cephalosporanic acid] | 25 (≈ 52.1 µM) | 12.5 (≈ 26.1 µM) | 3.1 (≈ 6.47 µM) | 200 (≈ 417 µM) | 12.5 (≈ 26.1 µM) | 6.3 (≈ 13.1 µM) |  | 200 (≈ 417 µM) | 25 (≈ 52.1 µM) | 63 | 11.2 | 6.3 (≈ 13.1 µM) | 6.3 (≈ 13.1 µM) | 12.5 | 200 | > 200 | 
Cc1nnc(SCC2=C(C(=O)O)N3C(=O)C(NC(=O)[C@H](N)c4ccc(SCCC(=O)O)cc4)C3SC2)s1 (stereo partly drawn) [Compound No. 61726, 7-[D-α-Amino-α-(4'-carboxyethylthiophenyl)acetamido]-3-(5-methyl-1,3,4-thiadiazol-2-ylthiomethyl)-3-cephem-4-carboxylic acid] | 25 (≈ 43 µM) | 6.3 (≈ 10.8 µM) | 12.5 (≈ 21.5 µM) | 50 (≈ 86 µM) | 6.3 (≈ 10.8 µM) | 6.3 (≈ 10.8 µM) |  | 50 (≈ 86 µM) | 25 (≈ 43 µM) | > 50 |  |  | 6.3 (≈ 10.8 µM) | 50 |  | 200 (≈ 344 µM) | MIC [7]: 12.5 µg/mL (≈ 21.5 µM)
Cn1nnnc1SCC1=C(C(=O)O)N2C(=O)C(NC(=O)[C@H](N)c3ccc(NCC(=O)O)cc3)C2SC1 (stereo partly drawn) [Compound No. 76746, 7-[D-α-Amino-α-(4'-carboxymethylaminophenyl)acetamido]-3-(1-methyl-1,2,3,4-tetrazol-5-ylthiomethyl)-3-cephem-4-carboxylic acid] | 1.6 (≈ 2.99 µM) | 6.3 (≈ 11.8 µM) | 3.1 (≈ 5.8 µM) | 50 (≈ 93.5 µM) | 6.3 (≈ 11.8 µM) | 0.8 (≈ 1.5 µM) | 3.1 (≈ 5.8 µM) | 100 (≈ 187 µM) | 1.6 (≈ 2.99 µM) |  |  | 1.6 (≈ 2.99 µM) | 1.6 (≈ 2.99 µM) |  |  | 6.3 (≈ 11.8 µM) | 
NC(=O)COc1ccc([C@@H](N)C(=O)NC2C(=O)N3C(C(=O)O)=C(CSc4c[nH]nn4)CSC23)cc1 (stereo partly drawn) [Compound No. 91726, 7-[D-α-Amino-α -(4'-carbamylmethoxyphenyl)acetamido]-3-(1,2,3-triazol-4-ylthiomethyl)-3-cephem-4-carboxylic acid] | 50 (≈ 96.2 µM) | 6.3 (≈ 12.1 µM) | 6.3 (≈ 12.1 µM) | 50 (≈ 96.2 µM) | 6.3 (≈ 12.1 µM) | 12.5 (≈ 24.1 µM) | 6.3 (≈ 12.1 µM) | 200 (≈ 385 µM) | 25 (≈ 48.1 µM) | 13.6 | 14 | 50 (≈ 96.2 µM) | 12.5 (≈ 24.1 µM) | 12.5 | 25 |  | 
COC(=O)COc1ccc([C@@H](N)C(=O)NC2C(=O)N3C(C(=O)O)=C(CSc4nnc(C)s4)CSC23)cc1 (stereo partly drawn) [Compound No. 96826, 7-[D-α-Amino-α-(4'-carbomethoxymethoxyphenyl)acetamido]-3-(5-methyl-1,3,4-thiadiazol-2-ylthiomethyl)-3-cephem-4-carboxylic acid] | 50 (≈ 88.4 µM) | 3.1 (≈ 5.48 µM) |  | 25 (≈ 44.2 µM) | 3.1 (≈ 5.48 µM) | 25 (≈ 44.2 µM) | 12.5 (≈ 22.1 µM) | 25 (≈ 44.2 µM) | 50 (≈ 88.4 µM) |  | < 3 | 25 (≈ 44.2 µM) | 25 (≈ 44.2 µM) | 7.2 | 9.4 | 25 (≈ 44.2 µM) | ED50 ([12]; po): 12.5 mg/kg
